Structures can show the parent of a compound that is named as a salt.

This assay addresses T1, recombinant human LTA4 hydrolase (rhLTA4H) (Homo sapiens, UniProt P09960).
T1 construct: made in house; host or cells: Spodoptera frugiperda (Sf-9) cells, baculovirus (pFastBac1)
T1 sequence (P09960 1-611): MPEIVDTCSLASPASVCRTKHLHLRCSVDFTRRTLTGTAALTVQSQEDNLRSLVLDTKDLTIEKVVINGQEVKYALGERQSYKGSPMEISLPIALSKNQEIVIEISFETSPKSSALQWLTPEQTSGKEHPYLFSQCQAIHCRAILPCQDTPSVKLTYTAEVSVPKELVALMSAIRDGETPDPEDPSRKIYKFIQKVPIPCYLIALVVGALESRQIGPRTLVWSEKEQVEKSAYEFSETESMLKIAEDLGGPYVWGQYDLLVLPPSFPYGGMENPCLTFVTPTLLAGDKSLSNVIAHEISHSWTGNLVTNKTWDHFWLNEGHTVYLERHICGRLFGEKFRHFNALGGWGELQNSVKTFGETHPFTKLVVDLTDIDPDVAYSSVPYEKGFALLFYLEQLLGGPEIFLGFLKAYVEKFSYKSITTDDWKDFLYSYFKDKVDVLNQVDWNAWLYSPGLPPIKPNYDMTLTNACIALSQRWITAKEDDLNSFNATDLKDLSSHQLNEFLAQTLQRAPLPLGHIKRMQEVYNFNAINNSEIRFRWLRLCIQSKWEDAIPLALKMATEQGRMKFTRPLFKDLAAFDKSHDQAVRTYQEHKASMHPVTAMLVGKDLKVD
Description: Recombinant Human LTA4 Hydrolase Assay for LTA4 Hydrolase Inhibitor Activity. Type of assay: biochemical. The following applies: average of results obtained; LTB4 quantified by enzyme-linked immunoassay. The method, boiled down:
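Baculovirus/Sf-9-expressed human LTA4 hydrolase (36 ng) preincubated with compound 10 min at rt in 0.1 M potassium phosphate pH 7.4, 5 mg/mL fatty-acid-free BSA. Reaction started with 9 ng LTA4 free acid, run 10 min at rt; LTB4 measured by enzyme immunoassay, IC50 from 4-parameter fit.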
With `NC(=O)N1C[C@H]2C[C@@H]1CN2CCc1ccc(Oc2nc3ccc(Cl)cc3s2)cc1` [Example 246, (R,R)-5-{2-[4-(6-Chloro-benzothiazol-2-yloxy)-phenyl]-ethyl}-2,5-diaza-bicyclo[2.2.1]heptane-2-carboxylic acid amide], the Ki (commonly the equilibrium dissociation constant of an inhibitor or competing ligand from its target) was determined as 40 nM.
The result for `CS(=O)(=O)N1C[C@H]2C[C@@H]1CN2CCOc1ccc(Oc2nc3c(Cl)cccc3s2)cc1` [Example 203, (R,R)-4-Chloro-2-{4-[2-(5-methanesulfonyl-2,5-diaza-bicyclo[2.2.1]hept-2-yl)-ethoxy]-phenoxy}-benzothiazole] reads 293 nM; that for `CS(=O)(=O)N1C[C@H]2C[C@@H]1CN2CCOc1ccc(Oc2nc3ccccc3s2)cc1` [Example 223, (R,R)-2-{4-[2-(5-Methanesulfonyl-2,5-diaza-bicyclo[2.2.1]hept-2-yl)-ethoxy]-phenoxy}-benzothiazole], 64 nM; that for `CS(=O)(=O)N1CCC2CN(Cc3ccc(Oc4nc5ccccc5s4)cc3)CC21` (stereo not drawn) [Example 127, 2-[4-(1-Methanesulfonyl-hexahydro-pyrrolo[3,4-b]pyrrol-5-ylmethyl)-phenoxy]-benzothiazole], 273 nM.
The same measure for `CC(=O)N1[C@@H]2CC[C@H]1C[C@H](NCCOc1ccc(Oc3nc4cccc(F)c4s3)cc1)C2` [Example 263, meso-exo-1-(3-{2[4-(7-Fluoro-benzothiazole-2-yloxy)-phenoxy]-ethylamino}8-aza-bicyclo[3.2.1]oct-8-yl)-ethanone]: 190 nM; for `CC(=O)N1C[C@@H]2C[C@H]1CN2Cc1ccc(Oc2nc3ccccc3s2)cc1F` [Example 79, (S,S)-1-{5-[4-(Benzothiazol-2-yloxy)-2-fluoro-benzyl]-2,5-diaza-bicyclo[2.2.1]hept-2-yl}-ethanone]: 59 nM; for `CC(=O)N1CC2CCC(C1)N2CCOc1ccc(Oc2nc3cc(F)ccc3s2)cc1` [Example 199, meso-1-(8-{2-[4-(5-Fluoro-benzothiazol-2-yloxy)-phenoxy]-ethyl}-3,8-diaza-bicyclo[3.2.1]oct-3-yl)-ethanone]: 20 nM.
The result for `CC(=O)N1CC2CCN(Cc3ccc(Oc4nc5ccccc5s4)cc3)C2C1` (stereo not drawn) [Example 86, 1-{1-[4-(Benzothiazol-2-yloxy)-benzyl]-hexahydro-pyrrolo[3,4-b]pyrrol-5-yl}-ethanone] reads 55 nM; that for `CC(=O)N1C[C@H]2C[C@@H]1CN2Cc1ccc(Oc2nc3ccccc3s2)cc1` [Example 3, (R,R)-1-{5-[4-(Benzothiazol-2-yloxy)-benzyl]-2,5-diaza-bicyclo[2.2.1]hept-2-yl}-ethanone], 7 nM; that for `CS(=O)(=O)N1CC2CCC(C1)N2CCc1ccc(Oc2nc3c(Cl)cccc3s2)cc1` [Example 281, meso-4-Chloro-2-{4-[2-(3-methanesulfonyl-3,8-diaza-bicyclo[3.2.1]oct-8-yl)-ethyl]-phenoxy}-benzothiazole], 2040 nM.
For `NC(=O)N1C[C@H]2C[C@@H]1CN2CCc1ccc(Oc2nc3c(Cl)cccc3s2)cc1` [Example 252, (R,R)-5-{2-[4-(4-Chloro-benzothiazol-2-yloxy)-phenyl]-ethyl}-2,5-diaza-bicyclo[2.2.1]heptane-2-carboxylic acid amide], the Ki was found to be 108 nM.
The result for `CC(=O)N1C[C@@H]2C[C@H]1CN2CCOc1ccc(Oc2nc3cc(Cl)ccc3s2)cc1` [Example 264, (S,S)-1-(5-{2-[4-(5-Chloro-benzothiazole-2-yloxy)-phenoxy]-ethyl}-2,5-diaza-bicyclo[2.2.1]hept-2-yl)-ethanone] reads 212 nM; that for `NC(=O)N1CC2CCN(Cc3ccc(Oc4nc5ccccc5s4)cc3)CC2C1` (single isomer, unassigned; (+)) [Example 142A, (+)-5-[4-(Benzothiazol-2-yloxy)-benzyl]-octahydro-pyrrolo[3,4-c]pyridine-2-carboxylic acid amide], 53 nM.
The same measure for `CC(=O)N1[C@@H]2CC[C@H]1C[C@H](NCCOc1ccc(Oc3nc4ccc(Cl)cc4s3)cc1)C2` [Example 178, meso-exo-1-(3-{2-[4-(6-Chloro-benzothiazol-2-yloxy)-phenoxy]-ethylamino}-8-aza-bicyclo[3.2.1]oct-8-yl)-ethanone]: 900 nM.
The result for `CS(=O)(=O)N1CC2CCC(C1)N2CCOc1ccc(Oc2nc3ccc(Cl)cc3s2)cc1` [Example 169, meso-6-Chloro-2-{4-[2-(3-methanesulfonyl-3,8-diaza-bicyclo[3.2.1]oct-8-yl)-ethoxy]-phenoxy}-benzothiazole] reads 693 nM; that for `NC(=O)N1[C@@H]2CC[C@H]1C[C@@H](NCc1ccc(Oc3nc4c(F)cccc4s3)cc1)C2` [Example 198, meso-endo-3-[4-(4-Fluoro-benzothiazol-2-yloxy)-benzylamino]-8-aza-bicyclo[3.2.1]octane-8-carboxylic acid amide], 9 nM.
Turning to `NC(=O)N1C[C@@H]2C[C@H]1CN2CCc1cccc(Oc2nc3ccccc3s2)c1` [Example 39, (S,S)-5{2-[3-(Benzothiazol-2-yloxy)-phenyl]-ethyl}2,5-diaza-bicyclo[2.2.1]heptane-2-carboxylic acid amide], the Ki amounted to 100 nM.
For `Cc1ccc2nc(Oc3ccc(CCN4C[C@H]5C[C@@H]4CN5S(C)(=O)=O)cc3)sc2c1` [Example 193, (R,R)-2-{4-[2-(5-Methanesulfonyl-2,5-diaza-bicyclo[2.2.1]hept-2-yl)-ethyl]-phenoxy}-6-methyl-benzothiazole], the Ki is 612 nM.
The same measure for `c1ccc2sc(Oc3ccc(CN4CCC5CNCC54)cc3)nc2c1` (stereo not drawn) [Example 82, 2-[4-(Hexahydro-pyrrolo[3,4-b]pyrrol-1-ylmethyl)-phenoxy]-benzothiazole hydrochloride]: 97 nM; for `CC(=O)N[C@H]1C[C@H]2CC[C@@H](C1)N2Cc1ccc(Oc2nc3ccc(C)cc3s2)cc1` [Example 73, meso-endo-N-{8-[4-(6-Methyl-benzothiazol-2-yloxy)-benzyl]-8-aza-bicyclo[3.2.1]oct-3-yl}-acetamide]: 33 nM; for `NC(=O)N[C@H]1C[C@H]2CC[C@@H](C1)N2CCc1ccc(Oc2nc3cccc(F)c3s2)cc1` [Example 190, meso-endo-(8-{2-[4-(7-Fluoro-benzothiazol-2-yloxy)-phenyl]-ethyl}-8-aza-bicyclo[3.2.1]oct-3-yl)-urea]: 16 nM.
The result for `O=C(C1CCOCC1)N1CC2CN(Cc3ccc(Oc4nc5ccccc5s4)cc3)CC2C1` (stereo not drawn) [Example 103, {5-[4-(Benzothiazol-2-yloxy)-benzyl]-hexahydro-pyrrolo[3,4-c]pyrrol-2-yl}-(tetrahydro-pyran-4-yl)-methanone] reads 51 nM.
Consider `NC(=O)N[C@H]1C[C@H]2CC[C@@H](C1)N2CCOc1ccc(Oc2nc3cccc(Cl)c3s2)cc1` [Example 278, meso-endo-(8-{2-[4-(7-Chloro-benzothiazol-2-yloxy)-phenoxy]-ethyl}-8-aza-bicyclo[3.2.1]oct-3-yl)-urea], for which the Ki was determined as 1740 nM.
The same measure for `CC(=O)N1[C@@H]2CC[C@H]1C[C@H](NCCc1ccc(Oc3nc4ccc(F)cc4s3)cc1)C2` [Example 209, meso-exo-1-(3-{2-[4-(6-Fluoro-benzothiazol-2-yloxy)-phenyl]-ethylamino}-8-aza-bicyclo[3.2.1]oct-8-yl)-ethanone]: 69 nM.

For the origin of these results see patent US8344008B2 (Janssen Pharmaceutica NV, priority 2007, dated 2013).
